Assay [1] relates to Mycobacterium tuberculosis H37Rv. The assay can be described thus: Inhibition of Mycobacterium tuberculosis H37Rv chorismate mutase expressed in Escherichia coli assessed as inhibition of prephenate formation at 50 uM after 1 to 5 mins by spectrophotometry.
Assay [2] is described as follows: (§1) Inhibition of Mycobacterium tuberculosis H37Rv chorismate mutase expressed in Escherichia coli assessed as inhibition of prephenate formation after 1 to 5 mins by spectrophotometry.
In assay [3] the test system is Mycobacterium tuberculosis H37Rv. Described as §1.

The structures appear in SMILES notation.

In the case of `O=c1c2c3c(sc2nnn1-c1ccc(F)cc1)CCCC3`, in assay [1], the inhibition came out at 25%.

For the compound `CCCc1nn(C)c2c(=O)n(-c3cccc(Cl)c3)nnc12`, the inhibition in assay [1] was 30%. Regarding `O=c1c2c3c(sc2nnn1-c1ccc2ccccc2c1)CCCC3`, the inhibition in assay [1] amounted to 37%.

Turning to `CCCc1nn(C)c2c(=O)n(-c3ccc4ccccc4c3)nnc12`, the values for the inhibition in assay [1] and in assay [3] were 61% and “Dose-dependent effect”, respectively. In addition, the IC50 in assay [2] worked out at 15.1 µM. Consider `CCCc1nn(C)c2c(=O)n(-c3ccccc3)nnc12`, for which the inhibition in assay [1] is 10%.

Regarding `COc1cc(CCNc2c([N+](=O)[O-])cc(C(=O)O)cc2S(N)(=O)=O)cc(OC)c1`, the IC50 in assay [2] was < 10 µM. In the case of `O=c1c2ccccc2nnn1-c1ccccc1`, in assay [1], the inhibition is 12%. For `O=c1c2ccccc2nnn1-c1ccc2ccccc2c1`, the inhibition in assay [1] was 40%. On the same count and under the same terms, as for `CCCc1nn(C)c2c(=O)n(-c3ccc(F)cc3)nnc12`, the figure is 24%.

By inhibition is commonly meant the share of the control response that was lost under treatment. By IC50 is commonly meant the concentration that gives 50% inhibition.

The values above are taken from ChEMBL document CHEMBL1938321, “Cu-mediated N-arylation of 1,2,3-triazin-4-ones: synthesis of fused triazinone derivatives as potential inhibitors of chorismate mutase” (Bioorg Med Chem Lett, 2012).
